The record followed here is US9463192B2, “Trk-inhibiting compound” (ONO PHARMACEUTICAL CO., LTD., priority 2013, dated 2016).

Like-named read-outs stand apart in the source and are kept apart here.

As usually defined, the IC50 is the point on the concentration scale where inhibition reaches its midpoint. Higher therefore signals weaker potency.

The target in one test is human TrkA (Homo sapiens (Human), UniProt P04629). Nature of the test: Measurement of TrkA kinase-inhibiting activity using human TrkA-expressing cells. As to conditions: CHO-K1 cells expressing human TrkA and NFAT-bla; NGF 50 ng/ml; TR-FRET reporter. Format: cell-based. On the procedure:
TrkA kinase-inhibiting activity in cell systems was measured using CHO-K1 cells exressing human TrkA and NFAT-bla (CellSenser™ TrkA-NFAT-bla CHO-K1 cells, Invitrogen).
On the day before the assay, CellSenser™ TrkA-NFAT-bla CHO-K1 cells were suspended in an assay medium (Opti-MEM1 Reduced Serum Medium (Invitrogen) containing 0.5% dialysed fetal bovine serum (Invitrogen), 0.1 mM nonessential amino acids (Invitrogen), 1 mM sodium pyruvate (Invitrogen) and antibiotics (100 U/mL penicillin and 100 µg/mL streptomycin (Invitrogen))) and plated at a density of 2.4×10^4 cells/40 μL/well in a 96-well clear bottom plate (Corning, Catalogue No.: 3882). In some wells were added only the assay medium at 40 μL/well (Cell-free). On the day of the assay, 10 mM of the present compound (DMSO solution) was distributed in a 96-well plate (Costar, Catalogue No.: 3363) and serially diluted with DMSO with the geometrical ratio of 3. The serial dilutions were diluted with the assay medium to 100-fold to prepare a solution of the present compound with a 10-fold concentration (DMSO concentration: 1%). To the plate where cells were plated was added the present compound at 5 µL/well and the plate was incubated in a CO2 incubator with 5% CO2, 95% Air at 37° C. for 30 minutes. For a control and a blank, the assay medium containing 1% DMSO was added at 5 µL/well in place of the solution of the present compound. Subsequently the assay medium containing NGF (Mouse 2.5s, Natural, Invitrogen) was added to the plate at 5 µL/well (final concentration of NGF: 50 ng/ml) and the plate was incubated in a CO2 incubator with 5% CO2, 95% Air at 37° C. for 5 hours. For the blank group, the assay medium was added in place of NGF at 5 µL/well. A reporter assay detection reagent ([…]) was added to the plate which was then incubated in the dark at room temperature for 120 minutes. The reporter assay detection reagent was prepared from LiveBLAzer™-FRET B/G Loading Kit (Invitrogen). On the Analyst GT (Molecular Devices Japan, K.K.) the wells were irradiated with excitation light at 405 nm and the fluorescence intensities at 460 nm and 530 nm were measured. The time resolved fluorescence resonance energy transfer (TR-FRET) ratio of each well was calculated according to the following Equation 1: TR-FRET ratio=(A460x−A460F)/(A530x−A530F) [Eq. 1]
A460x: the fluorescence intensity at 460 nm of the present compound, control or blank;
A460F: the fluorescence intensity at 460 nm of the Cell-free;
A530x: the fluorescence intensity at 530 nm of the present compound, control or blank; and
A530x: the fluorescence intensity at 530 nm of the Cell-free.
The TR-FRET inhibition rate (%) of the present compound was calculated according to the following Equation 2: Inhibition rate (%)={1−(AX−AB)/(AC−AB)}×100 [Eq. 2]
wherein AX: the TR-FRET ratio when the present compound is added;
AB: the TR-FRET of the blank; and
AC: the TR-FRET of the control.
The IC50 value by the present compound was calculated from the inhibition curve based on the inhibition rate of the present compound at respective concentrations.
(TR-FRET usually uses a lanthanide donor and a delayed reading to cut background.)

Test [1] relates to NGF-induced vascular hyper permeability. Nature of the test: Inhibition of rat NGF-induced vascular hyper permeability. Format: in vivo. As to conditions: po, 1 mg/kg orally, read-out: Inhibition rate of vascular hyper permeability (%) (time after administration (h)). On the procedure:
TrkA-inhibiting activity of the present compound was evaluted in vivo. The present compound dissolved in a medium was orally administered (adminstered volume: 5 mL/kg) to male CD(SD)IGS rats (7- to 9-week old, Charles River laboratories Japan, Inc.) shaved on the back. A medium was orally administered (adminstered volume: 5 mL/kg) to the control and normal groups. After 6, 12 or 14 hours of administration, 3 μg/mL of a NGF (Mouse 2.5s, Natural, Invitrogen) solution prepared in 0.1% BSA (Sigma-Aldrich)-containing saline was intracutaneously administered (dose; 50 μL/site) at 3 sites on the back of animals under halothane anesthesia. For the normal group, 0.1% BSA-containing saline was intracutaneously administered (dose; […]) at 3 sites on the back. Immediately after intracutaneous administration, 1% Evans Blue (Tokyo Chemical Industriy Co., Ltd.) was administered intravenously from tail (adminstered volume: 3 mL/kg). After 10 minutes of administration, the animals were sacrificed by bleeding due to incision of the abdominal aorta. The sites of intracutaneous administration on the back (3 sites) were excised and the skin samples were respectively transferred to the wells in a 48-well plate (Asahi Glass Co., Ltd.). Formamide (0.8 mL/well) was added to the plate and the plate was sealed and incubated overnight at 60° C. The formamide extraction solution (200 μL) was transferred to a 96-well plate and the absorbance (wavelength: 620 nm) of Evans Blue extracted in formamide was measured on an absorbance microplate reader (SpectraMAX 190, Molecular Devices Japan, K.K.). Standard samples of Evans Blue dissolved in formamide (0, 0.78, 1.56, 3.13, 6.25, 12.5, 25 and 50 µg/mL) were measured at the same time for the absorance (wavelength: 620 nm) to generate a calibration curve. Based on the calibration curve and the absorbances of samples, the concentrations of Evans Blue in the sample was calculated. The concentrations of Evans Blue for three skin samples collected from one aminal were averaged to obtain the vale for the animal. The rate of inhibition for rat NGF-induced vascular hyper permeability of the present compound was calculated according to the following Equation: Inhibition rate (%)={1−(AX−AN)/(AC−AN)}×100 [Eq. 3]
wherein AX: the concentration of Evans Blue of the test compound (an average value of 3 samples from one animal);
AN: the concentration of Evans Blue of the normal group (an average value of 3 samples from one animal);
AC: the concentration of Evans Blue of the control group (an average value of 3 samples from one animal).

Sequence of human TrkA (P04629 33-796): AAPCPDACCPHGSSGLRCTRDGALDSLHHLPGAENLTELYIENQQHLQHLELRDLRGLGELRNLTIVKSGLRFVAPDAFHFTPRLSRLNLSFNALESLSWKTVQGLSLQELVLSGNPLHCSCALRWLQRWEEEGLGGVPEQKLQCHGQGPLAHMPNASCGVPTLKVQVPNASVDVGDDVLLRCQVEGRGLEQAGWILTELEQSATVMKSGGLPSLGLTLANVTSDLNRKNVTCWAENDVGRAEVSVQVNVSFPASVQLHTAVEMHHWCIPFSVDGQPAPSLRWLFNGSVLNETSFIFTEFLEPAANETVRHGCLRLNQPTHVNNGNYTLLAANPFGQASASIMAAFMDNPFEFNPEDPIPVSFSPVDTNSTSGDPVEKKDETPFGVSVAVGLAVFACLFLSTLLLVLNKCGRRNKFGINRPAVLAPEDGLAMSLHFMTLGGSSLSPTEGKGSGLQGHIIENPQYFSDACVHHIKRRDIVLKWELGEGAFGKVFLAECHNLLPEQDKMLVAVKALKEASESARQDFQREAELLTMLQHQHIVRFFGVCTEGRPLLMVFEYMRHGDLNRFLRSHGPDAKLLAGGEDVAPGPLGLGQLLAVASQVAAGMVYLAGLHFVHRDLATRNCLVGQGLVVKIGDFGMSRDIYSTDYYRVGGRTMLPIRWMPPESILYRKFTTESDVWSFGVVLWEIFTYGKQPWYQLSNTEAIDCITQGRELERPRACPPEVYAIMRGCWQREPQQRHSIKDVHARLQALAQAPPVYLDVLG

At human TrkA, `Nc1ncc(Cl)cc1-c1ccc(Oc2ncc(NC(=O)Nc3cc(C(F)(F)F)ccc3-n3cccn3)cn2)cc1` [Example 7, 1-(2-(1H-pyrazol-1-yl)-5-(trifluoromethyl)phenyl)-3-(2-(4-(2-amino-5-chloropyridin-3-yl)phenoxy)pyrimidin-5-yl)urea] showed an IC50 of 0.001 µM. Besides, the inhibition in vivo at 1 mg/kg in test [1] (14 h after administration) was 97%. For `Cc1cn(-c2ccc(C(F)(F)F)cc2NC(=O)Nc2cnc(Oc3ccc(-c4cc(Cl)cnc4N)cc3)nc2)nn1` [Example 8-1, 1-(2-(4-(2-amino-5-chloropyridin-3-yl)phenoxy)pyrimidin-5-yl)-3-(2-(4-methyl-1H-1,2,3-triazol-1-yl)-5-(trifluoromethyl)phenyl)urea] the same measures were 0.001 µM and 94%. For `Nc1ncc(Cl)cc1-c1ccc(Oc2ncc(NC(=O)Nc3cc(C(F)(F)F)ccc3-n3ccc(C(F)(F)F)n3)cn2)cc1` [Example 8-2, 1-(2-(4-(2-amino-5-chloropyridin-3-yl)phenoxy)pyrimidin-5-yl)-3-(5-(trifluoromethyl)-2-(3-(trifluoromethyl)-1H-pyrazol-1-yl)phenyl)urea], in that order: 0.002 µM and 100%. For `Nc1ncc(Cl)cc1-c1ccc(Oc2ncc(NC(=O)Nc3cc(C(F)(F)F)ccc3Cl)cn2)cc1` [Example 8-4, 1-(2-(4-(2-amino-5-chloropyridin-3-yl)phenoxy)pyrimidin-5-yl)-3-(2-chloro-5-(trifluoromethyl)phenyl)urea], in that order: 0.001 µM and 96%. With `Nc1ncc(Cl)cc1-c1ccc(Oc2ccc(NC(=O)Nc3cc(C(F)(F)F)ccc3-n3cccn3)cn2)cc1` [Example 9-1], the IC50 on human TrkA amounted to 0.003 µM. Also, the inhibition in vivo at 1 mg/kg in test [1] (14 h after administration) amounted to 86%. On to `Nc1ncc(Cl)cc1-c1ccc(Oc2ccc(NC(=O)Nc3cc(C(F)(F)F)ccc3-n3ccnn3)cn2)cc1` [Example 9-2], for which, at human TrkA, 0.001 µM corresponded to half-maximal inhibition (IC50). The inhibition in vivo at 1 mg/kg in test [1] (14 h after administration) is 100%.

In turn, `Nc1ncc(Cl)cc1-c1ccc(Oc2ccc(NC(=O)Nc3cc(C(F)(F)F)ccc3-c3cccnc3)cn2)cc1` [Example 11, 1-(6-(4-(2-amino-5-chloropyridin-3-yl)phenoxy)pyridin-3-yl)-3-(2-(pyridin-3-yl)-5-(trifluoromethyl)phenyl)urea] registered an IC50 on human TrkA of 0.001 µM. Further, the inhibition in vivo at 1 mg/kg in test [1] (14 h after administration) amounted to 100%. As to `Cn1nccc1-c1ccc(C(F)(F)F)cc1NC(=O)Nc1cnc(Oc2ccc(-c3cc(Cl)cnc3N)cc2)nc1` [Example 13-1, 1-(2-(4-(2-amino-5-chloropyridin-3-yl)phenoxy)pyrimidin-5-yl)-3-(2-(1-methyl-1H-pyrazol-5-yl)-5-(trifluoromethyl)phenyl)urea], half-maximal inhibition against human TrkA (IC50) required 0.002 µM. In addition, in test [1] (14 h after administration), the inhibition in vivo at 1 mg/kg is 100%.

In turn, `Nc1ncc(F)cc1-c1ccc(Oc2ncc(NC(=O)Nc3cc(C(F)(F)F)ccc3-n3ccnn3)cn2)cc1` [Example 14-5, 1-(2-(1H-1,2,3-triazol-1-yl)-5-(trifluoromethyl)phenyl)-3-(2-(4-(2-amino-5-fluoropyridin-3-yl)phenoxy)pyrimidin-5-yl)urea] gave an IC50 at human TrkA of 0.001 µM. Besides, in test [1] (14 h after administration), the inhibition in vivo at 1 mg/kg amounted to 93%. As to `Nc1ncc(F)cc1-c1ccc(Oc2ncc(NC(=O)Nc3cc(C(F)(F)F)ccc3-c3cccnc3)cn2)cc1` [Example 14-6, 1-(2-(4-(2-amino-5-fluoropyridin-3-yl)phenoxy)pyrimidin-5-yl)-3-(2-(pyridin-3-yl)-5-(trifluoromethyl)phenyl)urea], on human TrkA, 0.001 µM corresponded to half-maximal inhibition (IC50). Besides, in test [1] (12 h after administration), the inhibition in vivo at 1 mg/kg was determined as 78%.

For the compound `Nc1ncc(Cl)cc1-c1ccc(Oc2ncc(NC(=O)Nc3ccc(C(F)(F)F)cc3-n3cccn3)cn2)cc1` [Example 15-4, 1-(2-(1H-pyrazol-1-yl)-4-(trifluoromethyl)phenyl)-3-(2-(4-(2-amino-5-chloropyridin-3-yl)phenoxy)pyrimidin-5-yl)urea], on human TrkA, half-maximal inhibition (IC50) was put at 0.001 µM. Moreover, the inhibition in vivo at 1 mg/kg in test [1] (14 h after administration) came to 100%. For `Nc1ncc(Cl)cc1-c1ccc(Oc2ncc(NC(=O)Nc3ccc(C(F)(F)F)cc3F)cn2)cc1` [Example 15-5, 1-(2-(4-(2-amino-5-chloropyridin-3-yl)phenoxy)pyrimidin-5-yl)-3-(2-fluoro-4-(trifluoromethyl)phenyl)urea] the same measures were 0.003 µM and 92%.

In turn, `O=C(Nc1cnc(Oc2ccc(-c3cnc4ccccn34)cc2)nc1)Nc1cc(C(F)(F)F)ccc1-n1cccn1` [Example 23-3, 1-(2-(1H-pyrazol-1-yl)-5-(trifluoromethyl)phenyl)-3-(2-(4-(imidazo[1,2-a]pyridin-3-yl)phenoxy)pyrimidin-5-yl)urea] showed an IC50 against human TrkA of 0.001 µM. Same read-out and setting: the result for `O=C(Nc1cnc(Oc2ccc(-c3cnc4[nH]ccc4c3)cc2)nc1)Nc1cc(C(F)(F)F)ccc1-c1cccnc1` [Example 23-7, 1-(2-(4-(1H-pyrrolo[2,3-b]pyridin-5-yl)phenoxy)pyrimidin-5-yl)-3-(2-(pyridin-3-yl)-5-(trifluoromethyl)phenyl)urea] reads 0.002 µM; that for `O=C(Nc1cnc(Oc2ccc(-c3cnc4cnccn34)cc2)nc1)Nc1cc(C(F)(F)F)ccc1-c1cccnc1` [Example 23-10, 1-(2-(4-(imidazo[1,2-a]pyrazin-3-yl)phenoxy)pyrimidin-5-yl)-3-(2-(pyridin-3-yl)-5-(trifluoromethyl)phenyl)urea], 0.001 µM. Still for that read-out and setting: the result for `O=C(Nc1cnc(Oc2ccc(-c3cnn4ccccc34)cc2)nc1)Nc1cc(C(F)(F)F)ccc1-c1cccnc1` [Example 23-11, 1-(2-(4-(pyrazolo[1,5-a]pyridin-3-yl)phenoxy)pyrimidin-5-yl)-3-(2-(pyridin-3-yl)-5-(trifluoromethyl)phenyl)urea] reads 0.001 µM.

The compound `O=C(Nc1cnc(Oc2ccc(-c3cnc4[nH]ncc4c3)cc2)nc1)Nc1cc(C(F)(F)F)ccc1-c1cccnc1` [Example 23-12, 1-(2-(4-(1H-pyrazolo[3,4-b]pyridin-5-yl)phenoxy)pyrimidin-5-yl)-3-(2-(pyridin-3-yl)-5-(trifluoromethyl)phenyl)urea] returned a half-maximal inhibitory concentration (IC50) against human TrkA of 0.001 µM.
